Some test systems named below: KM-20L2; XF498; DMS-114; LXFL 529; RXF 631; DLD-1; DMS-273; SNB-78; HOP-18.
Holding throughout (experiment): NCI-60 cell line screen, 48 h

SMILES strings stand for the structures.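 How tested: cells in 96-well plates exposed to compound for 48 hours at five concentrations. GI50 marks 50% less growth.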 The source made the active and inactive calls. No stated cut-off is given here; in the data, active = GI50 up to about 1.1 µM and inactive = higher.

For the compound `O=C1C2=C(SCCS2)C(=O)c2ccccc21`, the GI50 with KM-20L2 is 1.94 µM (inactive); in the experiment on XF498, 1.64 µM (inactive); in the experiment with DMS-114, 0.871 µM (active); in the experiment with LXFL 529, 1.64 µM (inactive); in the experiment on RXF 631, 1.82 µM (inactive); in the experiment with DLD-1, 1.96 µM (inactive). The GI50 with DMS-273 was 1.81 µM (inactive).

`O=C(N/N=C/c1cc(Br)ccc1O)N/N=C/c1cc(Br)ccc1O`: the GI50 in the experiment with KM-20L2 was 4.85 µM (inactive); in the experiment with XF498, 2.19 µM (inactive); in the experiment on DMS-114 it was 1.18 µM (inactive); in the experiment on RXF 631, 14.2 µM (inactive); with DLD-1 it was 2.9 µM (inactive); with DMS-273, 0.791 µM (active).

For `CSc1ccc(Cc2cc(C(C)(C)C)cc(C(C)(C)C)c2O)cc1`, the GI50 in the experiment on KM-20L2 is 14.6 µM (inactive); with XF498, 17.8 µM (inactive); in the experiment with DMS-114 it was 13 µM (inactive); with LXFL 529, 13.9 µM (inactive); with RXF 631, 14.9 µM (inactive); in the experiment with DLD-1 it was 13.8 µM (inactive). The GI50 was 14.9 µM (inactive) with SNB-78, 19.6 µM (inactive) in the experiment with HOP-18 and 13.7 µM (inactive) with DMS-273.

Regarding `C=CCN(N=O)C(=O)N(CCCCC(NC(C)=O)C(=O)NCc1ccccc1)Cc1ccccc1` (stereo not drawn), the GI50 was 18.9 µM (inactive) in the experiment on KM-20L2; 36.1 µM (inactive) with XF498; 27.7 µM (inactive) in the experiment on DMS-114; 31.1 µM (inactive) in the experiment on LXFL 529; 32.5 µM (inactive) in the experiment with RXF 631; 23 µM (inactive) in the experiment on HOP-18. The GI50 with DMS-273 is 41.1 µM (inactive).

With `O=C1NC(=O)C2C(=O)NC(=O)C1C2(c1ccccc1)c1cc[nH]c1` (stereo not drawn), the GI50 in the experiment on XF498, with DMS-114, with LXFL 529, with DLD-1, with SNB-78 and with DMS-273 was > 100 µM (inactive) throughout.

Regarding `Cc1ccc(S(=O)(=O)N/N=C(\CCN2CCCC2)CC(c2ccccc2)c2c(O)c3ccccc3oc2=O)cc1` (stereo not drawn), the GI50 in the experiment with KM-20L2, in the experiment on XF498, with LXFL 529, in the experiment on RXF 631, in the experiment on DLD-1 and with SNB-78 was > 100 µM (inactive) each time. The GI50 in the experiment on HOP-18 was > 100 µM (inactive).

Take `CC(C)(C)C1=Cc2cc3cc(C(C)(C)C)[nH]c(=O)c3cc2S(=O)(=O)N1`: the GI50 with DMS-114 was 21.4 µM (inactive); in the experiment on LXFL 529, 25.2 µM (inactive); with DLD-1, 31.7 µM (inactive); with SNB-78 it was 42.1 µM (inactive).

As for `O=C1c2ccccc2OP(=O)(OCC(F)(F)F)OC1(C(F)(F)F)C(F)(F)F` (stereo not drawn), the GI50 in the experiment with KM-20L2, with XF498, in the experiment with DMS-114, in the experiment with LXFL 529, in the experiment with SNB-78 and with DMS-273 was > 100 µM (inactive) each time.

In the case of `CCOC(=O)/C(C(=O)c1ccccc1)=C1\N[C@H](C(=O)OCC)CS1`, the GI50 in the experiment on KM-20L2, with XF498, with LXFL 529, in the experiment on RXF 631, in the experiment on DLD-1 and with SNB-78 was > 100 µM (inactive) each time. Moreover, the GI50 in the experiment with HOP-18 was 16.3 µM (inactive).

For the compound `CC1CC(c2ccc(Cl)cc2)=Nc2ccccc2S1` (stereo not drawn), the GI50 in the experiment with KM-20L2, in the experiment with DMS-114, with LXFL 529, in the experiment with RXF 631, with DLD-1 and in the experiment on SNB-78 was > 100 µM (inactive) in each case.

In the case of `O=C(CCC(=O)Nc1ccc(Cl)cc1)CC(=O)c1ccc(F)cc1`, the GI50 in the experiment on KM-20L2, in the experiment on XF498, in the experiment on LXFL 529, in the experiment on DLD-1, in the experiment with SNB-78 and in the experiment with DMS-273 was > 100 µM (inactive) throughout.

On to `O=C(Cc1ccccc1[N+](=O)[O-])C(CO)c1ccccc1[N+](=O)[O-]` (stereo not drawn), for which the GI50 in the experiment on KM-20L2 was > 100 µM (inactive); with XF498, 20.8 µM (inactive); with DMS-114, 67.1 µM (inactive); in the experiment with LXFL 529, 57.1 µM (inactive); in the experiment on DLD-1 it was > 100 µM (inactive); in the experiment on SNB-78 it was > 100 µM (inactive). For the same compound, the GI50 in the experiment on HOP-18 was 4.17 µM (inactive); with DMS-273, > 100 µM (inactive).

For `N#Cc1ccc(C(C2C(=O)NC(=O)NC2=O)C2C(=O)NC(=O)NC2=O)cc1`, the GI50 with KM-20L2, in the experiment with LXFL 529 and in the experiment on DMS-273 was > 100 µM (inactive) throughout.

Regarding `O=C1C(=O)N(c2cccc(C(F)(F)F)c2)C(=O)C(=O)C1c1nc2ccccc2s1`, the GI50 in the experiment with KM-20L2 was > 100 µM (inactive); in the experiment with XF498 it was > 100 µM (inactive); in the experiment on DMS-114 it was 45.8 µM (inactive); in the experiment on LXFL 529 it was 52 µM (inactive); with RXF 631 it was 88.1 µM (inactive); in the experiment on DLD-1 it was 74.3 µM (inactive). For the same compound, the GI50 is > 100 µM (inactive) in the experiment on SNB-78, 63.7 µM (inactive) in the experiment on HOP-18 and > 100 µM (inactive) with DMS-273.

Turning to `O=C(O)CCc1nn2c(nc1=O)sc1ccc3ccccc3c12`, the GI50 in the experiment with KM-20L2, in the experiment on XF498, with DMS-114, in the experiment on LXFL 529, in the experiment with RXF 631 and with DLD-1 was > 100 µM (inactive) in each case. For the same compound, the GI50 in the experiment with SNB-78, in the experiment on HOP-18 and in the experiment with DMS-273 was > 100 µM (inactive) in each case.

Turning to `C/C(=N\NC(=S)NC(CCC(=O)O)C(=O)O)c1cnccn1` (stereo not drawn), the GI50 with KM-20L2, in the experiment on XF498, in the experiment with DMS-114, in the experiment with LXFL 529, in the experiment on RXF 631 and in the experiment on DLD-1 was > 100 µM (inactive) in each case. Further, the GI50 in the experiment with SNB-78 and in the experiment on HOP-18 was > 100 µM (inactive) throughout.

As for `CCOC(=O)NC(=O)c1cn(C2OC(COC(=O)CCCCCCCCC(=O)OCC3OC(n4cc(C(=O)NC(=O)OCC)c(=O)[nH]c4=O)C(O)C3O)C(O)C2O)c(=O)[nH]c1=O` (stereo not drawn), the GI50 in the experiment on KM-20L2, in the experiment with XF498, with DMS-114, in the experiment with LXFL 529, with RXF 631 and in the experiment with DLD-1 was > 100 µM (inactive) in each case. Besides, the GI50 in the experiment on SNB-78, in the experiment with HOP-18 and with DMS-273 was > 100 µM (inactive) throughout.

For `COC1OC(OC)C2C(c3c(C)cc(C)cc3C)=NOC12` (stereo not drawn), the GI50 in the experiment on KM-20L2, in the experiment with XF498, with LXFL 529, with DLD-1, in the experiment on SNB-78 and in the experiment with HOP-18 was > 100 µM (inactive) each time. In addition, the GI50 in the experiment on DMS-273 is > 100 µM (inactive).

Turning to `CSc1nc(NC2OC(COC(C)=O)C(OC(C)=O)C(OC(C)=O)C2OC(C)=O)c(/N=C\C=N/c2c(NC3OC(COC(C)=O)C(OC(C)=O)C(OC(C)=O)C3OC(C)=O)nc(SC)n(C)c2=O)c(=O)n1C` (stereo not drawn), the GI50 with KM-20L2 is > 100 µM (inactive); in the experiment on XF498, 15.6 µM (inactive); in the experiment with DMS-114 it was > 100 µM (inactive); in the experiment on LXFL 529 it was > 100 µM (inactive); in the experiment with RXF 631 it was 51.8 µM (inactive); in the experiment on DLD-1 it was > 100 µM (inactive). For the same compound, the GI50 in the experiment on SNB-78 was 31.7 µM (inactive); in the experiment with HOP-18 it was > 67.1 µM (inactive); in the experiment with DMS-273, > 100 µM (inactive).

In the case of `CCOC(=O)C1=C(OC(OCC)C(CC)[Se]c2ccccc2)CCC1` (stereo not drawn), the GI50 in the experiment with KM-20L2 was 29.8 µM (inactive); in the experiment with XF498, 23.1 µM (inactive); in the experiment on DMS-114, 4.62 µM (inactive); in the experiment on LXFL 529, 18.7 µM (inactive); with RXF 631, 10.3 µM (inactive); in the experiment with DLD-1 it was 19.3 µM (inactive). The GI50 was 24.5 µM (inactive) with SNB-78, 23.1 µM (inactive) in the experiment with HOP-18 and 13.2 µM (inactive) in the experiment with DMS-273.

As to `COC(=O)/C(=N\Nc1nnc(C)n1N)C(C#N)c1ccc(Cl)cc1` (stereo not drawn), the GI50 in the experiment on KM-20L2 was > 100 µM (inactive); in the experiment with XF498, > 100 µM (inactive); in the experiment on DMS-114 it was 58.1 µM (inactive); in the experiment on LXFL 529 it was > 100 µM (inactive); in the experiment on DLD-1, > 100 µM (inactive); in the experiment on SNB-78, > 100 µM (inactive). The GI50 with HOP-18 and in the experiment on DMS-273 was > 100 µM (inactive) throughout.

For `N#CC(C(=O)/C(=N\Nc1nc(S)nn1N)C(C#N)c1ccc(Cl)cc1)c1ccc(Cl)cc1` (stereo not drawn), the GI50 with KM-20L2, with XF498, in the experiment on DMS-114, in the experiment with LXFL 529, in the experiment on DLD-1 and in the experiment with SNB-78 was > 100 µM (inactive) in each case. Also, the GI50 in the experiment on HOP-18 and with DMS-273 was > 100 µM (inactive) in each case.

For the compound `CCC/C(=N/NC(=O)C(N)=O)C(CC)C(=O)CCC(=O)N(Cc1ccccc1)Cc1ccccc1` (stereo not drawn), the GI50 with KM-20L2, with XF498, with DMS-114, in the experiment with LXFL 529, with RXF 631 and with SNB-78 was > 100 µM (inactive) in each case. In addition, the GI50 in the experiment on HOP-18 and in the experiment with DMS-273 was > 100 µM (inactive) throughout.

Consider `COc1ccc(/C=N\N2C(=O)Cc3ccccc32)cc1`, for which the GI50 in the experiment on KM-20L2 is > 100 µM (inactive); with XF498 it was 27.4 µM (inactive); in the experiment on DLD-1, > 100 µM (inactive); in the experiment on SNB-78 it was 91.2 µM (inactive); with HOP-18 it was > 100 µM (inactive); with DMS-273, > 100 µM (inactive).

With `Cc1cccc2c(=O)cc(-c3ccccc3)[nH]c12`, the GI50 is 4.07 µM (inactive) with KM-20L2; 3.01 µM (inactive) in the experiment on XF498; 3.95 µM (inactive) in the experiment with DMS-114; 4.61 µM (inactive) in the experiment on LXFL 529; 4.31 µM (inactive) in the experiment on DLD-1; 3.57 µM (inactive) in the experiment on DMS-273.

(Values after ChEMBL document CHEMBL1201862, “PubChem BioAssay data set” (2004).)
